According to US11053204B2, “Pyrimidinyloxy benzene derivatives as herbicides” (FMC Corporation, priority 2015, dated 2021):

Columns and labels:
Assay type in all cases: in vivo
[1] = tested on: galium (catchweed bedstraw, Galium aparine); assay: Test C preemergence, plant response rating
[2] = tested on: pigweed (Amaranthus retroflexus); assay: Test C preemergence, plant response rating; details: Preemergence
[3] = tested on: nutsedge, yellow (yellow nutsedge, Cyperus esculentus); assay: Test C postemergence, plant response rating; details: Cyperus, post-emergence
Outline: (§1)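 Both timings shared one formulation, a non-phytotoxic solvent mixture with surfactant, and a greenhouse period of 13 to 15 d. Preemergence used seeded loam/sand or silt loam soil, postemergence used 2 to 18 cm plants; visual ratings ran from 0 (no effect) to 100 (complete control).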

[4] = tested on: wheat (winter wheat, Triticum aestivum); assay: Test C postemergence, plant response rating; details: Triticum aestivum, post-emergence
Outline: as §1

[5] = tested on: foxtail, giant (giant foxtail, Setaria faberii); assay: Test C postemergence, plant response rating; details: Setaria faberi, post-emergence
Outline: as §1

[6] = tested on: blackgrass (Alopecurus myosuroides); assay: Test C postemergence, plant response rating; details: Alopecurus myosuroides, post-emergence
Outline: as §1

[7] = tested on: velvetleaf (Abutilon theophrasti); assay: Test C postemergence, plant response rating; details: Abutilon theophrasti, post-emergence
Outline: as §1

[8] = tested on: lambsquarters (Chenopodium album); assay: Test C postemergence, plant response rating; details: Chenopodium album, post-emergence
Outline: as §1

[9] = tested on: oat, wild (wild oat Avena fatua); assay: Test C postemergence, plant response rating; details: Avena fatua, post-emergence
Outline: as §1

[10] = tested on: corn (Zea mays); assay: Test C postemergence, plant response rating; details: Zea mays, post-emergence
Outline: as §1

[11] = tested on: oilseed rape (Brassica napus); assay: Test C postemergence, plant response rating; details: Brassica napus, post-emergence
Outline: as §1

[12] = tested on: ragweed (common ragweed, Ambrosia elatior); assay: Test C postemergence, plant response rating; details: Ambrosia artemisiifolia, post-emergence
Outline: as §1

[13] = tested on: ryegrass, Italian (Italian ryegrass, Lolium multiflorum); assay: Test C postemergence, plant response rating; details: Lolium multiflorum, post-emergence
Outline: as §1

[14] = tested on: galium (catchweed bedstraw, Galium aparine); assay: Test C postemergence, plant response rating; details: Galium, post-emergence
Outline: as §1

[15] = tested on: soybean (Glycine max); assay: Test C postemergence, plant response rating; details: Glycine max, post-emergence
Outline: as §1

[16] = tested on: crabgrass, large (large crabgrass, Digitaria sanguinalis); assay: Test C postemergence, plant response rating; details: Digitaria sanguinalis, post-emergence
Outline: as §1

[17] = tested on: barnyardgrass (Echinochloa crus-galli); assay: Test C postemergence, plant response rating; details: Echinochloa crus-galli, post-emergence
Outline: as §1

[18] = tested on: waterhemp (common waterhemp, Amaranthus rudis); assay: Test C postemergence, plant response rating; details: for Plant response rating, Waterhemp: scale 0 to 100; for Waterhemp plant response rating: scale 0 to 100 (0 no effect, 100 complete control)
Outline: as §1

[19] = 62 g ai/ha, scale 0 to 100 (0 no effect, 100 complete control)
[20] = 125 g ai/ha, scale 0 to 100 (0 no effect, 100 complete control)

O=C(OCCC(F)(F)F)c1c(Br)cccc1Oc1ncc(Cl)cn1 [Compound 26, 3,3,3-trifluoropropyl 2-bromo-6-[(5-chloro-2-pyrimidinyl)oxy]benzoate]
Plant response rating, Galium ([1]; 16 g ai/ha, scale 0 to 100): 5
Plant response rating, Galium ([1]; 31 g ai/ha, scale 0 to 100): 90
Plant response rating, Galium ([1]; 62 g ai/ha, scale of 0 to 100): 95
Plant response rating, Galium ([1]; 125 g ai/ha, scale of 0 to 100): 100
Plant response rating, Pigweed ([2]; 125 g ai/ha, scale of 0 to 100): 100
Plant response rating, Pigweed ([2]; 16 g ai/ha, scale 0 to 100): 100
Plant response rating, Pigweed ([2]; 31 g ai/ha, scale 0 to 100): 100
Plant response rating, Pigweed ([2]; 62 g ai/ha, scale 0 to 100): 100
pest or weed control at 16 g/ha ([3]; 16 g ai/ha, scale 0 to 100): 5%
pest or weed control at 31 g/ha ([3]; 31 g ai/ha, scale 0 to 100): 10%
pest or weed control at 62 g/ha [3, 19]: 10%
pest or weed control at 125 g/ha [3, 20]: 10%
plant injury at 16 g/ha ([4]; 16 g ai/ha, scale 0 to 100): 0%
plant injury at 31 g/ha ([4]; 31 g ai/ha, scale 0 to 100): 0%
plant injury at 62 g/ha ([4]; 62 g ai/ha, scale 0 to 100 (0 no effect, 100 complete control), read-out: Wheat plant response rating): 5%
plant injury at 125 g/ha [4, 20]: 10%
pest or weed control at 16 g/ha ([5]; 16 g ai/ha, scale 0 to 100): 10%
pest or weed control at 31 g/ha ([5]; 31 g ai/ha, scale 0 to 100): 10%
pest or weed control at 62 g/ha [5, 19]: 10%
pest or weed control at 125 g/ha [5, 20]: 25%
pest or weed control at 16 g/ha ([6]; 16 g ai/ha, scale 0 to 100): 10%
pest or weed control at 31 g/ha ([6]; 31 g ai/ha, scale 0 to 100): 15%
pest or weed control at 62 g/ha [6, 19]: 15%
pest or weed control at 125 g/ha [6, 20]: 35%
pest or weed control at 16 g/ha ([7]; 16 g ai/ha, scale 0 to 100): 30%
pest or weed control at 31 g/ha ([7]; 31 g ai/ha, scale 0 to 100): 55%
pest or weed control at 62 g/ha ([7]; 62 g ai/ha, scale 0 to 100 (0 no effect, 100 complete control), read-out: Velvetleaf plant response rating): 75%
pest or weed control at 125 g/ha [7, 20]: 80%
pest or weed control at 16 g/ha ([8]; 16 g ai/ha, scale 0 to 100): 75%
pest or weed control at 31 g/ha ([8]; 31 g ai/ha, scale 0 to 100): 90%
pest or weed control at 62 g/ha [8, 19]: 98%
pest or weed control at 125 g/ha [8, 20]: 98%
pest or weed control at 16 g/ha ([9]; 16 g ai/ha, scale 0 to 100): 10%
pest or weed control at 31 g/ha ([9]; 31 g ai/ha, scale 0 to 100): 10%
pest or weed control at 62 g/ha [9, 19]: 15%
pest or weed control at 125 g/ha [9, 20]: 35%
Corn plant response rating (crop injury, 0 = no effect, 100 = complete kill) at 16 g/ha ([10]; 16 g ai/ha, scale 0 to 100): 20%
Corn plant response rating (crop injury, 0 = no effect, 100 = complete kill) at 31 g/ha ([10]; 31 g ai/ha, scale 0 to 100): 25%
plant injury at 62 g/ha [10, 19]: 20%
plant injury at 125 g/ha [10, 20]: 25%
plant injury at 16 g/ha ([11]; 16 g ai/ha, scale 0 to 100): 40%
plant injury at 31 g/ha ([11]; 31 g ai/ha, scale 0 to 100): 75%
plant injury at 62 g/ha [11, 19]: 75%
plant injury at 125 g/ha [11, 20]: 80%
pest or weed control at 16 g/ha ([12]; 16 g ai/ha, scale 0 to 100): 40%
pest or weed control at 31 g/ha ([12]; 31 g ai/ha, scale 0 to 100): 55%
pest or weed control at 62 g/ha [12, 19]: 55%
pest or weed control at 125 g/ha [12, 20]: 90%
pest or weed control at 16 g/ha ([13]; 16 g ai/ha, scale 0 to 100): 5%
pest or weed control at 31 g/ha ([13]; 31 g ai/ha, scale 0 to 100): 5%
pest or weed control at 62 g/ha [13, 19]: 10%
pest or weed control at 125 g/ha [13, 20]: 10%
pest or weed control at 16 g/ha ([14]; 16 g ai/ha, scale 0 to 100): 55%
pest or weed control at 31 g/ha ([14]; 31 g ai/ha, scale 0 to 100): 80%
pest or weed control at 62 g/ha [14, 19]: 95%
pest or weed control at 125 g/ha [14, 20]: 95%
plant injury at 16 g/ha ([15]; 16 g ai/ha, scale 0 to 100): 65%
plant injury at 31 g/ha ([15]; 31 g ai/ha, scale 0 to 100): 55%
plant injury at 62 g/ha [15, 19]: 65%
plant injury at 125 g/ha [15, 20]: 75%
pest or weed control at 16 g/ha ([16]; 16 g ai/ha, scale 0 to 100): 10%
pest or weed control at 31 g/ha ([16]; 31 g ai/ha, scale 0 to 100): 20%
pest or weed control at 62 g/ha [16, 19]: 25%
pest or weed control at 125 g/ha [16, 20]: 65%
pest or weed control at 16 g/ha ([17]; 16 g ai/ha, scale 0 to 100): 10%
pest or weed control at 31 g/ha ([17]; 31 g ai/ha, scale 0 to 100): 10%
pest or weed control at 62 g/ha [17, 19]: 20%
pest or weed control at 125 g/ha [17, 20]: 30%
Plant response rating, Waterhemp ([18]; 16 g ai/ha): 95
Plant response rating, Waterhemp ([18]; 31 g ai/ha): 98
Waterhemp plant response rating ([18]; 62 g ai/ha): 98
Waterhemp plant response rating ([18]; 125 g ai/ha): 100
